# Laboratory results: patent US9408887B2, “Intermittent dosing regimen for treating breast cancer” (New York University, priority 2011, dated 2016)
# Entries after “also recorded” stand apart in the source; their conditions may differ. Read-outs that look alike come from different tables or passages of the source. Starred links: 1 amine or outer side, 2 acyl side, 3 side chain; linkers in the order of their positions; H or OH if unused. Non-standard residues stand in square brackets, D forms with d. Residues, ends and D or L forms follow the SMILES beside them. Groups on a side chain read outwards from the residue. *: point of attachment. Ethylenediamine = C(CN[*:2])N[*:1]; Hyp = O=C(O)[C@@H]1C[C@@H](O)CN1; Phg = N[C@H](C(=O)O)c1ccccc1; CO = O=C([*:1])[*:2]; Bn = c1ccc(C*)cc1
# Experiments:
# [1] = test system: PR/p63 double positive cells; assay: Simultaneous immunofluorescence for PR and p63 in mammary glands of Brca1LoxP/Brca1LoxP (C57 loxP) mice; format: in vivo, mouse; settings: 7 days of treatment; for frequency of PR/p63 double positive cells (in words): LoxP mice; for frequency of PR/p63 double positive cells: C57 loxP mice, untreated loxP 22.5±0.8%, wildtype 3.8±0.4%
# Protocol: Simultaneous Immunofluorescence for PR and p63: 3-5 μm paraffin embedded tissue sections from C57/b and C57 loxP mice were stained using antibodies against PR and p63 (Lab Vision). Briefly, samples were deparaffinized by 60° C. heating following by xylene immersion for 30 min. Antigens were retrieved by heating 10 min 95° C. followed by 10 min 85° C. in citric acid pH 6.0 (Vector). […] Next day, specific secondary goat anti mouse Alexa Fluor 488 and donkey anti rabbit Alexa Fluor 594 antibodies (Invitrogen) were used to a final concentration of 1:200 to detect the primary antibodies, by incubating the samples for 1 hour at room temperature. Finally, samples were counterstained using DAPI at 0.02 mg/ml and mounted with Vectashield (Vector). Samples were imaged using a 40× objective with 0.95 numerical aperture Zeiss Plan-Apochromat objective on a Zeiss Axiovert equipped with epifluorescence. The number of epithelial cells positive for PR, p63 or both, was then calculated as the relative frequency of positive cells per epithelial cells per image. Finally, frequencies of positive cells between animal groups were statistically analyzed with the chi-square distribution. A probability of p<0.05 was considered statistically significant. Women with BRCA1 mutations are at high risk for developing breast cancer. As described above, an animal model of Brca1 deficiency (Brca1^LoxP/Brca1^LoxP mouse model system, also referred to herein as the LoxP mouse model system) was developed in which the mammary glands are abnormally developed and which presents with a phenotype similar to that observed in women with BRCA1 mutations. The Brca1loxP/loxP phenotype is characterized by ductal dilatation and epithelial hyperplasia. In earlier studies, 4 month old Brca1loxP/loxP mice were treated with pasireotide, PQ401 (a small molecule kinase inhibitor of the IGF-I receptor), or vehicle for 7 days. At the end of that period, mammary development in drug- vs. vehicle-treated animals was compared.
# [2] = test system: Ki67 staining (cell proliferation); assay: Cell proliferation by Ki67 immunohistochemistry in mammary glands of LoxP mice; format: in vivo, mouse; settings: for cell proliferation as assessed by Ki67 immunohistochemistry: after treatment
# Brca1LoxP/Brca1LoxP mice = assay: LoxP mammary phenotype (duct width, hyperplasia, HANs) after IGF-I inhibitor treatment; format: in vivo, mouse; settings: for duct width, glandular hyperplasia and hyperplastic alveolar nodules (in words): symptomatic LoxP mice, after treatment
# Protocol: The present inventor and colleagues have previously shown that growth hormone induced IGF-I activity is essential for mammary development and also estrogen and progesterone action. To determine whether inhibition of IGF-I action would prevent, reverse or delay the abnormalities associated with BRCA deficiency observed in LoxP animals, symptomatic animals were treated with three different compounds that inhibit IGF-I action.
# Women with BRCA1 mutations are at high risk for developing breast cancer. As described above, an animal model of Brca1 deficiency (Brca1^LoxP/Brca1^LoxP mouse model system, also referred to herein as the LoxP mouse model system) was developed in which the mammary glands are abnormally developed and which presents with a phenotype similar to that observed in women with BRCA1 mutations. The Brca1loxP/loxP phenotype is characterized by ductal dilatation and epithelial hyperplasia. In earlier studies, 4 month old Brca1loxP/loxP mice were treated with pasireotide, PQ401 (a small molecule kinase inhibitor of the IGF-I receptor), or vehicle for 7 days. At the end of that period, mammary development in drug- vs. vehicle-treated animals was compared.
# [3] = test system: cells with more than 1 or 2 centrosomes per cell; assay: Centrosome index by γ-tubulin immunolocalization in mammary glands of LoxP mice (genomic instability); format: in vivo, mouse; settings: 7 days of treatment
# Excerpt: Evidence directed to this point is presented in FIG. 2A, wherein immunolocalization of γ-tubulin (green) is used to locate centrosomes in the mammary glands of wildtype (WT) or Brca1 deficient (Brca1^LoxP/Brca1^LoxP) mice. Nuclei (blue) are counterstained. As shown therein, 1 or 2 centrosomes per cell are observed in wildtype mice, reflecting normal, control numbers of centrosomes in individual cells.
# Nuclei (blue) are counterstained. In wildtype mice, 1 or 2 centrosomes per cell are observed, reflecting normal, control numbers of centrosomes in individual cells.
# SSTR-2 = SSTR-2 (Homo sapiens, UniProt P30874); settings: cited from earlier work
# [4] = Phase III, Cushing's disease; cited from earlier work
# SSTR-3 = SSTR-3 (Homo sapiens, UniProt P32745); settings: cited from earlier work
# [5] = Serum glucose and insulin levels during and post SOM230 treatment in patients; settings: human, in vivo
# [6] = humans, cited from earlier work
# somatostatin receptors = settings: of 5 subtypes; cited from earlier work
# SSTR-1 = SSTR-1 (Homo sapiens, UniProt P30872); settings: cited from earlier work
# SSTR-5 = SSTR-5 (Homo sapiens, UniProt P35346); settings: cited from earlier work
# [7] = test system: mammary gland development; settings: rats; cited from earlier work
# [8] = rats; Bruns et al. 2002, van der Hoek et al. 2004; cited from earlier work
# breast cancer = settings: women with hyperplastic lesions of the breast; clinical evidence; cited from earlier work
# [9] = 13 patients, 30 days after stopping SOM230
# Chain of SSTR-3 (P32745 whole entry, species assumed): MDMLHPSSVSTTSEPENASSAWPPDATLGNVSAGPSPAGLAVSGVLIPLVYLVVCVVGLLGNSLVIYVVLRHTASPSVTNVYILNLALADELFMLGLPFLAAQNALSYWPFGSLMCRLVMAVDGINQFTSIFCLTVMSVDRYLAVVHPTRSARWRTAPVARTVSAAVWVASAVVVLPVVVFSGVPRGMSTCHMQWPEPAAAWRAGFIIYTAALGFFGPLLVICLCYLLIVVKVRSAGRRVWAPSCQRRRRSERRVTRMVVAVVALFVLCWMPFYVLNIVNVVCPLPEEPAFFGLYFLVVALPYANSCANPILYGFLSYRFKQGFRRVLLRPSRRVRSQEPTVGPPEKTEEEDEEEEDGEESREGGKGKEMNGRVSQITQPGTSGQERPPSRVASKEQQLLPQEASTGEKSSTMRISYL
# Chain of SSTR-1 (P30872 whole entry, species assumed): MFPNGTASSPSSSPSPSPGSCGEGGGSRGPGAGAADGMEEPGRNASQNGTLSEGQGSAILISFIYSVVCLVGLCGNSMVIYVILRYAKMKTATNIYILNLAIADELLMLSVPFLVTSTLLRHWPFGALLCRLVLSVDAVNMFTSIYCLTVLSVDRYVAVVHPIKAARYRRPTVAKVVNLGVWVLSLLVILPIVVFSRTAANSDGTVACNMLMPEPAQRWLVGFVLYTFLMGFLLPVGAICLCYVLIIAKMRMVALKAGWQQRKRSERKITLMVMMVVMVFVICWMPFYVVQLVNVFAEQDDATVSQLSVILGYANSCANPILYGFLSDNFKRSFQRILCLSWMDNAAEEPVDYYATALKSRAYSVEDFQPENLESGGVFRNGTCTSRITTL
# Chain of SSTR-5 (P35346 whole entry, species assumed): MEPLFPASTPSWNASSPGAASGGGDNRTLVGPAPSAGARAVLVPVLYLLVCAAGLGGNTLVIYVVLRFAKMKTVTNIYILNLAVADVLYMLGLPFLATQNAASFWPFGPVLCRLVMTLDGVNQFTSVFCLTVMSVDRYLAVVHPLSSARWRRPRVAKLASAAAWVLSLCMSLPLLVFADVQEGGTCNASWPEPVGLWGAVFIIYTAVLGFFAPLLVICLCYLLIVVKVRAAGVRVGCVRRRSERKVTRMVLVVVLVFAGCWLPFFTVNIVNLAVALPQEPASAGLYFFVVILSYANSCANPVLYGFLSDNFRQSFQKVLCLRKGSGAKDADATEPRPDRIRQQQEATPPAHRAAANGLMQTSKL
# Chain of SSTR-2 (P30874 whole entry, species assumed): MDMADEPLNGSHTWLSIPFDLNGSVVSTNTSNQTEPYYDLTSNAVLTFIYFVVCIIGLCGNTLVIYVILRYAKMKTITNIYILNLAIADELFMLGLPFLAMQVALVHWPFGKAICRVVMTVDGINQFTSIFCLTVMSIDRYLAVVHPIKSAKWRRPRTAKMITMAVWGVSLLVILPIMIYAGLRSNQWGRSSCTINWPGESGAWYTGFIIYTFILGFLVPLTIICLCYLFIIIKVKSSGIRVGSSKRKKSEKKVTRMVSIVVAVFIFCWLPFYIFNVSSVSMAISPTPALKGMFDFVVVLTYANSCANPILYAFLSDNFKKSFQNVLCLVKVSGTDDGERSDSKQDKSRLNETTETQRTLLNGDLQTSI
smiles,measurement,setting,value
COc1ccc(Cl)cc1NC(=O)Nc1cc(C)nc2ccccc12 [PQ401],frequency of PR/p63 double positive cells (in words),[1],significantly reduce; also recorded: dramatically reduced
same,cell proliferation as assessed by Ki67 immunohistochemistry,[2],significantly reduce cell proliferation
same,"duct width, glandular hyperplasia and hyperplastic alveolar nodules (in words)",Brca1LoxP/Brca1LoxP mice,"reduces duct width, glandular hyperplasia and hyperplastic alveolar nodules"
same,centrosome index / frequency of cells with more than 1 or 2 centrosomes (in words),[3],significantly reduced
NCCCC[C@@H]1NC(=O)[C@@H](Cc2c[nH]c3ccccc23)NC(=O)[C@H](c2ccccc2)NC(=O)[C@@H]2C[C@@H](OC(=O)NCCN)CN2C(=O)[C@H](Cc2ccccc2)NC(=O)[C@H](Cc2ccc(OCc3ccccc3)cc2)NC1=O [SOM230] (cyclo(F[Hyp]([CO-Ethylenediamine])[Phg][dW]KY(Bn))),serum glucose at 60 days after discontinuation,13 patients,normal
same,serum insulin at 60 days after discontinuation,13 patients,normal
same,time by which serum glucose and insulin levels normalize after SOM230 administration ceases,13 patients,≤ 30 days
same,mean glucose,[9],95
same,serum insulin,[9],increased
same,women tested with finger stick glucoses of less than 92 mg/dL,by 4 days after cessation of SOM230 administration,6 of 8
same,patients with hyperglycemia,patients diagnosed with or pre-disposed to breast cancer treated with SOM230,100%
same,30 day post-treatment glucose of the patient ultimately determined to be diabetic,"single patient, initial blood sugar 100",117
same,affinity for SSTR-2,SSTR-2,high binding affinity
same,HbA1C level,[4],increased
same,cholelithiasis,[4],30%
same,diarrhea,[4],58%
same,fasting plasma glucose level,[4],increased
same,hyperglycemia,[4],40%
same,nausea,[4],52%
same,patients with a hyperglycemia-related adverse event,[4],73%
same,affinity for SSTR-3,SSTR-3,high binding affinity
same,normalization of finger stick glucose after stopping medication (in words),[5],almost immediately
same,frequency of PR/p63 double positive cells,[1],5%
same,frequency of PR/p63 double positive cells,[1]; listed as pasireotide,4.8±1.2%
same,frequency of PR/p63 double positive cells (in words),[1],significantly reduce; also recorded: dramatically reduced
same,cell proliferation as assessed by Ki67 immunohistochemistry,[2],significantly reduce cell proliferation
same,cell proliferation (Ki67 staining) at 21 days post-treatment,"[2]; treated vs untreated, 21 days into rest period",continues to be inhibited
same,abnormal ductal dilatation,Brca1LoxP/Brca1LoxP mice; LoxP mice,significant effect on inhibiting
same,formation of HANs,Brca1LoxP/Brca1LoxP mice; LoxP mice,preventing formation of HANs
same,duct width at 21 days post-treatment (in words),"Brca1LoxP/Brca1LoxP mice; LoxP mice, SOM230 treatment then 21 days rest",maintained
same,"time clinical benefit (reduction in PR/p63+ progenitor cells, ductal width and/or proliferative cells) is maintained into the rest period","Brca1LoxP/Brca1LoxP mice; LoxP mice, after end of administration",at least 20 days
same,"duct width, glandular hyperplasia and hyperplastic alveolar nodules (in words)",Brca1LoxP/Brca1LoxP mice,reduces duct width
same,"duct width, glandular hyperplasia and hyperplastic alveolar nodules (in words)",Brca1LoxP/Brca1LoxP mice; listed as Pasireotide,"reduces duct width, glandular hyperplasia and hyperplastic alveolar nodules"
same,terminal half life,"[6]; Bruns et al. 2002, van der Hoek et al. 2004",27 h
same,plasma half life,[6]; Ma et al. 2005,approximately 12 hours
same,somatostatin receptors bound,somatostatin receptors,4 of the 5
same,affinity for SSTR-1,SSTR-1,high binding affinity
same,affinity for SSTR-5,SSTR-5,high binding affinity
same,IRS-1 phosphorylation in the mammary gland,[7],reduction
same,growth hormone secretion from the pituitary,[7],inhibitory effect
same,mammary gland development,[7],prevents mammary gland development
same,terminal half life,[8],27 h
same,centrosome index / frequency of cells with more than 1 or 2 centrosomes (in words),[3],significantly reduced
C[C@H](N)C(=O)NCC(=O)N[C@H]1CSSC[C@@H](C(=O)O)NC(=O)[C@H](CO)NC(=O)[C@H]([C@@H](C)O)NC(=O)[C@H](Cc2ccccc2)NC(=O)[C@H]([C@@H](C)O)NC(=O)C(CCCCN)NC(=O)[C@H](Cc2c[nH]c3ccccc23)NC(=O)[C@H](Cc2ccccc2)NC(=O)[C@H](Cc2ccccc2)NC(=O)[C@H](CC(N)=O)NC(=O)[C@H](CCCCN)NC1=O (some centres unmarked) [SS14],number of HANs,Brca1LoxP/Brca1LoxP mice; nine month old LoxP animals,impressive reduction
same,"duct width, glandular hyperplasia and hyperplastic alveolar nodules (in words)",Brca1LoxP/Brca1LoxP mice,"reduces duct width, glandular hyperplasia and hyperplastic alveolar nodules"
same,somatostatin receptors bound,somatostatin receptors,all of the somatostatin receptors
CC/C(=C(\c1ccccc1)c1ccc(OCCN(C)C)cc1)c1ccccc1 [tamoxifen],prevention of the development of cancer,breast cancer,about 50%
